# Measured values: PubChem BioAssay AID1996
# Details: buffer; pH 7.4; 200.0 µM
row,Compound,solubility kinetic [µg/mL]
1,O=C(O)CSc1ccnc2cc(Cl)ccc12,> 38.1
2,Cc1cccc(C)c1NC(=O)c1cccnc1,33.1
3,CNC(=O)CSc1nc(SC)ns1,> 35.3
4,O=C(OCc1cccc([N+](=O)[O-])c1)c1cc(=O)[nH]c2ccccc12,< 0.3
5,COCCNC(=O)/C(C#N)=C/c1ccc(O)c([N+](=O)[O-])c1,> 43.7
6,CN(C)CCOC1c2ccccc2CCc2ccc3ccccc3c21.O=C(O)C(=O)O (stereo not given),> 63.2
7,Cc1ccc(CNC(=S)Nc2cc(C)ccc2OC(F)F)cc1,4.7
8,O=C(NC(=S)Nc1ccc(Br)cn1)c1cccnc1,3
9,CCOC(=O)c1c(N)c2cc([N+](=O)[O-])ccc2n1C,< 0.2
10,COc1ccc(C(=O)CN2CCN(c3ccc(F)cc3)CC2)cc1,13
11,CC(OC(=O)c1cc[n+]([O-])cc1)C(=O)NCc1ccccc1 (stereo not given),> 45
12,CC(=O)NC(C)Cc1cn(Cc2ccccc2)c2ccccc12 (stereo not given),> 46
13,O=C(COc1ccc(Cl)cc1)NCc1ccc(F)cc1,41.5
14,CN(C)CCN(C(=O)c1ccc2ccccc2c1)c1nc2ccc(F)cc2s1.Cl,30
15,CCOP(=O)(c1ccc(N(C)C)cc1)C(O)c1ccc(C)cc1 (stereo not given),46
16,Nc1cc(Cl)ccc1Nc1ccncc1,> 33
17,Cc1nccn1CC1CCc2c(c3ccccc3n2C)C1=O.Cl (stereo not given),47.7
18,O=C(/C=C/c1ccco1)Nc1ccc2c(c1)OCCO2,> 40.7
19,CC1CCCN(C(=O)COC(=O)Cn2cnc3ccccc32)C1 (stereo not given),> 47.3
20,COC(=O)c1sc(NC(=O)c2c(C)noc2C)nc1C,> 44.3
21,CC(=O)Oc1ccc(-c2csc(Nc3cccc(C)n3)n2)cc1,< 0.2
22,CCOc1nc(-c2ccccc2)c2cc(C)ccc2n1,4.8
23,Cc1noc(C)c1-c1nc(CS(=O)(=O)c2ccccc2)no1,8
24,CC1=C(C(=O)OC2CCCCC2)C(c2ccc(F)cc2)NC(=O)N1 (stereo not given),31.2

row,Compound,solubility kinetic [µg/mL]
1,Cc1cc(Sc2ccc([N+](=O)[O-])cn2)ccc1Br,< 0.3
2,COc1ccc(CNC(=O)CCc2c[nH]c3ccccc23)cc1,24.6
3,CC(=O)SC1CC(=O)N(c2ccc(C(C)(C)C)cc2)C1=O (stereo not given),5.7
4,Cc1ccc(NC(=O)c2ccc3c(c2)OCO3)cc1Cl,0.9
5,O=C(O)c1ccc(Cl)c(NCc2cccs2)c1,34.8
6,CN1CCN(C(=O)CCC(=O)NCc2ccc(F)cc2)CC1,45.7
7,CSc1ccccc1C(=O)C1CCCN(Cc2ccncc2)C1 (stereo not given),41.4
8,CC(=O)Nc1c2c(nn1-c1ccc(C)cc1)CS(=O)(=O)C2,> 45.8
9,O=C(NC1CC2CCCC(C1)N2C(=O)Nc1cccc(F)c1)C1CC1 (stereo not given),16.3
10,CCN(CC)CCOC(=O)c1ccc(Cl)cc1Cl.Cl,> 49
11,Brc1cccc(Nc2nc(-c3cccnc3)cs2)c1,< 0.2
12,CC(C)(CCC(=S)N1CCOCC1)C1CCCCC1,4.1
13,CCOc1ccc(NC(=O)[C@@H](NC(=O)c2ccco2)C(C)C)cc1,> 49.6
14,C#CCOC(=O)Nc1ccc(OCC(F)(F)F)nc1,19.2
15,Cc1cc(C)cc(NC(=O)C2CCCN(c3ncccn3)C2)c1 (stereo not given),0.5
16,N#Cc1ccc(COC(=O)CCc2c[nH]c3ccccc23)cc1,3
17,N/C(=N\OC(=O)CC1CCCCC1)c1cccc(Br)c1,0.6
18,CC(C)(CNC(=O)c1cccs1)N1CCOCC1,> 40.3
19,CN(C)C(C)(C)/C=C/C(O)(c1ccccc1)c1ccccc1,43
20,Cc1ccc(C(=O)NC2CCc3ccccc3C2=O)cc1 (stereo not given),5.8
21,COc1ccccc1C(C[N+](=O)[O-])c1c[nH]c2ccccc12 (stereo not given),9
22,CCCCc1ccc(NC(=S)N2CCN(C)CC2)cc1,> 43.7
23,Clc1ccc2nc(-c3ccccc3)cn2c1,1.4
24,CC(NC(=O)COc1ccccc1Cl)c1ccccc1 (stereo not given),> 43.5

row,Compound,solubility kinetic [µg/mL]
1,CC(C)(C)c1ccc(-c2noc(CCC(=O)N3CCOCC3)n2)cc1,44.2
2,Cc1ccc(C(=O)Nc2c(C)cc(-c3ccccc3)oc2=O)cc1,< 0.7
3,CS(=O)(=O)N1CCc2cc(C(=O)N3CCCC3)ccc21,> 44.2
4,COc1ccc(CC(C)NCCC(c2ccccc2)c2ccccc2)cc1 (stereo not given),47.1
5,O=C(NCc1ccco1)C1CCCN1C(=O)Nc1ccccc1 (stereo not given),43.5
6,CS(=O)(=O)c1ccc(NC(=O)CN2C(=O)C3CCCCC3C2=O)cc1 (stereo not given),> 54.7
7,COc1ccc(OC)c(NC(=O)CC2(CC(=O)O)CCCC2)c1,> 48.2
8,O=C(NCc1cccnc1)c1nn2cccnc2c1Cl,> 43.2
9,Cc1occc1C(=O)Nc1ccc([N+](=O)[O-])cc1Br,1.7
10,CC(C)Cn1c(N)c(C(=O)COC(=O)c2cccn2C)c(=O)n(C)c1=O,> 54.4
11,NS(=O)(=O)c1ccc(NC(=O)COC(=O)c2ccco2)cc1,30
12,CC1CCCC(C)N1C(=O)COC(=O)CCC(=O)c1cccs1 (stereo not given),> 50.6
13,COc1ccc(NC(=O)NCc2ccccn2)c(OC)c1,42.1
14,O=S(=O)(NCc1ccc2c(c1)OCO2)c1ccc(F)c(F)c1,47.7
15,Cc1ccc(N2C(=O)NC(=O)/C(=C\C=C\c3ccco3)C2=O)cc1,8.8
16,Cn1c(=O)c(C(=O)c2ccccc2)c(O)c2ccccc21,38.8
17,Cc1cnc(NC(=O)CC2OC(=O)c3ccccc32)s1 (stereo not given),6.5
18,COC(=O)/C=C/c1cnc2ccccc2c1,> 32
19,CC1(C)C(=O)OC(/C=C/c2cccc([N+](=O)[O-])c2)C(C)(C)C1=O (stereo not given),2.7
20,O=C1Nc2ccccc2C1Cc1nc2ccccc2c(=O)n1-c1ccccc1 (stereo not given),55.1
21,COc1ccc(CCC(=O)OCC(=O)c2ccc[nH]2)cc1OC,> 47.6
22,Cc1ccc(C(=O)N/N=C\c2ccccn2)cn1,> 36
23,CCN(CC)CC#Cc1ccc(C)cc1.Cl,17.1
24,O=C(COC(=O)/C=C/c1ccc(S(=O)(=O)N2CCOCC2)cc1)Nc1ccccc1F,12.5

row,Compound,solubility kinetic [µg/mL]
1,O=C(Cn1ccc([N+](=O)[O-])n1)NCc1cccnc1,> 39.2
2,COCCSc1ccccc1C(=O)Nc1ccccc1C(C)C,48.9
3,Br.Fc1cc(Cl)ccc1NC1=NCCCCC1,> 48.2
4,Fc1cccc(NC(=S)N2CCc3ccccc32)c1,6.3
5,Br.Nc1ncc([N+](=O)[O-])cc1Br,> 44.8
6,CC1CCCCC12NC(=O)N(CC(=O)Nc1nccs1)C2=O (stereo not given),> 48.4
7,O=C(Cc1ccc(-c2ccccc2)cc1)NC1CCCC1,< 0.6
8,O=C(/C=C/c1ccc([N+](=O)[O-])cc1)NCCOc1ccc(F)cc1,4
9,Cc1cc(C(=O)N2CCN(c3ncccn3)CC2)nn1C,> 43
10,O=C(NC(=S)NC1CCCCC1)c1ccccc1[N+](=O)[O-],3
11,CC(=O)N1CCN(C(=O)CNC(=O)c2cccs2)CC1,> 44.3
12,CCN(CC(=O)NCc1ccco1)S(=O)(=O)c1ccc(F)cc1,> 51.1
13,COC(=O)c1c(C)[nH]c(C)c1C(C)=O,> 29.3
14,Cc1cc(-c2onc3ccc(Cl)cc23)ccc1O,16.3
15,COc1ccc(S(=O)(=O)N2CCOCC2)cc1NC(=O)CCCOc1ccccc1,40.9
16,Cl.O=C(O)C1CCN(Cc2cccnc2)CC1,> 38.5
17,COc1ccc(C(=O)Nc2cccc(OC(=O)c3ccco3)c2)cc1,3.2
18,COc1ccccc1NC(=O)C(=O)N1CCCC1,35.3
19,Cc1oc(-c2cccs2)nc1CN1CCC(C(=O)N2CCCC2)CC1,> 53.9
20,CCCCOc1ccc(C(=O)NCCc2ccccc2)cc1,< 0.6
21,CN1CCN(C(=O)c2ccc(CNS(=O)(=O)c3ccc(F)c(Cl)c3)cc2)CC1,59.4
22,CC(C)NC(=O)C(=O)Nc1cc2c3c(c1)CCC(=O)N3CCC2,> 47.3
23,CCn1nc(C(C)C(=O)O)c2ccccc2c1=O (stereo not given),> 36.9
24,CSCCC(NC(=O)C1CCCC1)c1nnc2ccccn12 (stereo not given),> 47.8

row,Compound,solubility kinetic [µg/mL]
1,CC1CN(C(=S)Nc2cccc(Cl)c2Cl)CC(C)O1 (stereo not given),18.9
2,C/C(=C\c1ccc(Cl)cc1)C(=O)c1c(C)cc(C)[nH]c1=O,42.8
3,CC(=O)Cn1cnc2c(sc3nc(C)cc(C)c32)c1=O,7.2
4,CCc1cc(=O)[nH]c(SCC(=O)Nc2cc(C)on2)n1,> 44.1
5,Cc1ccccc1C(=O)c1cccn1CC(=O)NCc1ccccc1,12.7
6,Cc1ccnc(N2C3CCC2CC(O)(c2ccccc2)C3)n1 (stereo not given),> 44.3
7,CC(=O)Nc1ccc(CN2CCCCCC2)cc1,33.9
8,CCC(=O)OCC(=O)N=c1sccn1Cc1ccc(C)cc1,36.4
9,O=C(/C=C/c1ccco1)Nc1nc(-c2ccc(F)c(F)c2)cs1,< 0.4
10,Br.CC(C)(C)c1ccc(C2=CSC3=NCCN23)cc1,49.4
11,Cc1ccc2nsnc2c1S(=O)(=O)N1CCN(C)CC1,45.5
12,O=C(CCS(=O)(=O)c1ccccc1)Nc1nc(-c2ccc(F)cc2)cs1,< 0.4
13,CCOc1ccc(-n2c(C)c(C(C)=O)c3cc(O)ccc32)cc1,< 0.7
14,O=C1CSC(c2cccnc2)N1c1ccccc1 (stereo not given),> 38.4
15,N#C/C(=C\c1ccc(OCC(N)=O)cc1)S(=O)(=O)c1ccccc1,9.4
16,O=C(O)[C@H]1Cc2ccccc2CN1S(=O)(=O)c1ccc(F)cc1,> 50.3
17,CN1CCCN(C(=O)c2ccc(Br)s2)CC1,> 45.5
18,CC(=O)N1CCN(c2ccc(NC(=O)c3cccc(C)c3)cc2)CC1,7.7
19,COc1ccc(C(=O)NC23CC4CC(CC(C4)C2)C3)cc1OC,2.9
20,O=C(COC(=O)c1cccc(F)c1)NC(=O)NC1CCCC1,41.4
21,O=C(NC1CC1)C1CCCN1C(=O)NC1CCCCC1 (stereo not given),> 41.9
22,CCOc1ccccc1C(=O)OCC(=O)Nc1cccc(S(=O)(=O)N2CCCC2)c1,19.2
23,COC(=O)Cc1c(O)ccn(CCc2ccc(OC)c(OC)c2)c1=O,> 52.1
24,Cc1nc2ccc(NC(=O)Cc3ccccc3F)cc2s1,8
